Patent publication US12594268B2, “Methods of treating Fabry disease in patients having a mutation in the GLA gene” (Amicus Therapeutics, Inc., priority 2018, dated 2026)
Positions count from the first letter of the chain named.

Legend:
Assay type in all cases: cell-based
α-Gal A mutant form N53K = biological target: T1, α-Gal A mutant form N53K (Homo sapiens, UniProt P06280, N53K); assay: α-Gal A activity in lysates of transfected HEK-293 cells, N53K
T1 construct: expressed in transfected cells; host or cells: HEK-293
T1 sequence (P06280 32-429 N53K): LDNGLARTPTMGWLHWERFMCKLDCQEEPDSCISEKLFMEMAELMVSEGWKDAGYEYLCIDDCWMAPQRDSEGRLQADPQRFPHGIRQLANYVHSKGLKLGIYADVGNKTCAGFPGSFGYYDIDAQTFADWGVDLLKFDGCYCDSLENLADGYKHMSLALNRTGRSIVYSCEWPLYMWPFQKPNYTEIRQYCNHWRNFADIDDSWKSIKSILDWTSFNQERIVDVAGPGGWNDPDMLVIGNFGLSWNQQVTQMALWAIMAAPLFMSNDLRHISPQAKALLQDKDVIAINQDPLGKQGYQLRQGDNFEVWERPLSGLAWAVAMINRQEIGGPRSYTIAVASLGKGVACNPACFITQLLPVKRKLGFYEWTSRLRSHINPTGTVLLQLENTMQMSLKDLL
Method: (§1) Baseline and 10 μM migalastat α-Gal A activity: Differences in the α-Gal A activity between lysates incubated in the absence and presence of 10 μM migalastat were determined using a one-tailed, Mann Whitney U test; an increase at 10 μM migalastat with a p<0.05 was considered significant.
(§2) 10 μM migalastat α-Gal A activity (% WT)=(α-Gal A activity in mutant transfected cell lysates incubated with 10 μM migalastat÷α-Gal A activity in wild-type transfected cell lysates without migalastat)*100.
(§3) Absolute increase (% WT)=is the 10 μM migalastat α-Gal A activity (% WT) minus the baseline α-Gal A activity (% WT).
(§4) Relative increase is the 10 μM migalastat α-Gal A activity in mutant transfected cell lysates÷baseline α-Gal A activity in mutant transfected cell lysates incubated without migalastat.

[1] = biological target: T2, α-Gal A mutant form N228D (Homo sapiens, UniProt P06280, N228D); assay: α-Gal A activity in lysates of transfected HEK-293 cells, N228D
T2 construct: expressed in transfected cells; host or cells: HEK-293
T2 sequence (P06280 32-429 N228D): T1 sequence (P06280 32-429 N53K) with K22N, N197D
Method: as §1, §2, §3, §4

α-Gal A mutant form G80V = biological target: T3, α-Gal A mutant form G80V (Homo sapiens, UniProt P06280, G80V); assay: α-Gal A activity in lysates of transfected HEK-293 cells, G80V
T3 construct: expressed in transfected cells; host or cells: HEK-293
T3 sequence (P06280 32-429 G80V): T1 sequence (P06280 32-429 N53K) with K22N, G49V
Method: as §1, §2, §3, §4

[2] = biological target: T4, α-Gal A mutant form P259Q (Homo sapiens, UniProt P06280, P259Q); assay: α-Gal A activity in lysates of transfected HEK-293 cells, P259Q
T4 construct: expressed in transfected cells; host or cells: HEK-293
T4 sequence (P06280 32-429 P259Q): T1 sequence (P06280 32-429 N53K) with K22N, P228Q
Method: as §1, §2, §3, §4

[3] = biological target: T5, α-Gal A mutant form E338V (Homo sapiens, UniProt P06280, E338V); assay: α-Gal A activity in lysates of transfected HEK-293 cells, E338V
T5 construct: expressed in transfected cells; host or cells: HEK-293
T5 sequence (P06280 32-429 E338V): T1 sequence (P06280 32-429 N53K) with K22N, E307V
Method: as §1, §2, §3, §4

[4] = 10 μM migalastat minus baseline
[5] = 10 μM migalastat ÷ baseline activity
[6] = HEK-293 lysates, 10 μM migalastat, 5 days, mean ± SEM

Absolute increase (% WT) (α-Gal A mutant form N53K; [4]): 24.0 % WT | Relative increase (α-Gal A mutant form N53K; [5]): 2.70 | 10 μM migalastat α-Gal A activity (α-Gal A mutant form N53K; [6]): 13895 ± 1270 nmol/mg/h | 10 μM migalastat α-Gal A activity (% WT) (α-Gal A mutant form N53K; [6]): 38.6 ± 2.5 % WT | Absolute increase (% WT) [1, 4]: 48.2 % WT | Relative increase [1, 5]: 4.12 | 10 μM migalastat α-Gal A activity [1, 6]: 25816 ± 2273 nmol/mg/h | 10 μM migalastat α-Gal A activity (% WT) [1, 6]: 63.2 ± 5.4 % WT | Absolute increase (% WT) (α-Gal A mutant form G80V; [4]): 4.3 % WT | Relative increase (α-Gal A mutant form G80V; [5]): 3.18 | 10 μM migalastat α-Gal A activity (α-Gal A mutant form G80V; [6]): 2434 ± 333 nmol/mg/h | 10 μM migalastat α-Gal A activity (% WT) (α-Gal A mutant form G80V; [6]): 6.4 ± 0.6 % WT | Absolute increase (% WT) [2, 4]: 36.1 % WT | Relative increase [2, 5]: 1.90 | 10 μM migalastat α-Gal A activity [2, 6]: 25935 ± 2020 nmol/mg/h | 10 μM migalastat α-Gal A activity (% WT) [2, 6]: 73.6 ± 5.0 % WT | Absolute increase (% WT) [3, 4]: 24.7 % WT | Relative increase [3, 5]: 1.83 | 10 μM migalastat α-Gal A activity [3, 6]: 21807 ± 845 nmol/mg/h | 10 μM migalastat α-Gal A activity (% WT) [3, 6]: 54.8 ± 2.2 % WT
Structure (SMILES): OC[C@H]1NC[C@H](O)[C@@H](O)[C@H]1O [migalastat, (2R,3S,4R,5S)-2-(hydroxymethyl) piperdine-3,4,5-triol]
